Results on 27 compounds are retold here after patent US12139487B2, “Compounds and uses thereof” (Foghorn Therapeutics Inc., priority 2022, dated 2024).

The experiment relates to BRM-dependent transcription (BRG1 mutant lung cancer cell line A549). As to the kind of experiment: BRM-dependent transcription, MMTV luciferase reporter in BRG1 mutant A549 cells. Conditions: Table 11; for IC50: A549-MMTV luciferase reporter, dexamethasone induced, 6 hours; for Ratio (MDA-MMTV IC50 (μM) divided by A549-MMTV IC50 (μM)): MMTV luciferase reporter cell lines, selectivity BRG1/BRM. It is filed as cell-based. The essentials:
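Compound dose series added to dexamethasone-stimulated A549 cells (BRG1 mutant) carrying a BRM-dependent mouse mammary tumor virus luciferase reporter; luminescence measured at 6 h post-stimulation.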

The structures appear in SMILES notation.

For `COc1nc([C@@H](F)CF)ccc1-c1ccc2cnc(CNC(=O)c3cc(Cl)c4c(c3)S(=O)(=O)[C@@H](F)CCO4)cc2n1` [Compound 382], the “Ratio (MDA-MMTV IC50 (μM) divided by A549-MMTV IC50 (μM))” value came to 40.88. Further, where the note is “Homo sapiens, A549, 6 h”, the half-inhibitory concentration (IC50) is 9.6 nM.

Take `COCCOc1nn(-c2ccc3cnc(CNC(=O)c4cc(F)c5c(c4)S(=O)(=O)[C@@H](F)COC5)cc3n2)cc1F` [Compound 508]: the “Ratio (MDA-MMTV IC50 (μM) divided by A549-MMTV IC50 (μM))” value was 21.72. This compound also showed an IC50 (Homo sapiens, A549, 6 h) of 11.5 nM.

`CCOc1ccc(-c2ccc3cnc(CNC(=O)c4cc(C(F)F)c5c(c4)S(=O)(=O)[C@@H](F)COC5)cc3n2)nc1C1CC1(F)F` (stereo partly drawn) [Compound 416]: the “Ratio (MDA-MMTV IC50 (μM) divided by A549-MMTV IC50 (μM))” value is 50.12. Moreover, the IC50 (Homo sapiens, A549, 6 h) amounted to 19.9 nM.

Consider `O=C(NCc1cc2nc(N3CCCc4cc(OC(F)(F)F)cnc43)ccc2cn1)c1cc(F)c2c(c1)S(=O)(=O)[C@@H](F)CCO2` [Compound 352], for which the “Ratio (MDA-MMTV IC50 (μM) divided by A549-MMTV IC50 (μM))” value amounted to 23.28. Besides, 16.3 nM corresponded to half-maximal inhibition (Homo sapiens, A549, 6 h) (IC50).

As to `CCOc1ccc(-c2ccc3cnc(CNC(=O)c4cc(Cl)c5c(c4)S(=O)(=O)[C@@H](F)CCO5)cc3n2)nc1C1CC1(F)F` (stereo partly drawn) [Compound 370], the “Ratio (MDA-MMTV IC50 (μM) divided by A549-MMTV IC50 (μM))” value worked out at 27.27. Inhibition (Homo sapiens, A549, 6 h) was half-maximal at 20.5 nM (IC50).

Regarding `O=C(NCc1cc2nc(-c3ccc(OC(F)F)c(C4CC4)n3)ccc2cn1)c1cc(Cl)c2c(c1)S(=O)(=O)[C@@H](F)CCO2` [Compound 357], the 50% inhibitory concentration (IC50) was found to be 12.4 nM and the “Ratio (MDA-MMTV IC50 (μM) divided by A549-MMTV IC50 (μM))” value was 22.68.

For `CCOc1nc([C@H](F)CF)ccc1-c1ccc2cnc(CNC(=O)c3cc(Cl)c4c(c3)S(=O)(=O)[C@@H](F)COC4)cc2n1` [Compound 519], the IC50 was found to be 22.6 nM and the “Ratio (MDA-MMTV IC50 (μM) divided by A549-MMTV IC50 (μM))” value was 28.12.

Turning to `CCOc1nc(C(F)F)ccc1-c1ccc2cnc(CNC(=O)c3cc(Cl)c4c(c3)S(=O)(=O)[C@@H](F)CCO4)cc2n1` [Compound 331, (R)-9-chloro-N-((2-(6-(difluoromethyl)-2-ethoxypyridin-3-yl)-1,6-naphthyridin-7-yl)methyl)-4-fluoro-3,4-dihydro-2H-benzo[b][1,4]oxathiepine-7-carboxamide 5,5-dioxide], the “Ratio (MDA-MMTV IC50 (μM) divided by A549-MMTV IC50 (μM))” value is listed as 33.18. In addition, the IC50 (Homo sapiens, A549, 6 h) turned out to be 16.9 nM.

`O=C(NCc1cc2nc(-n3cc(F)c(OC(F)F)n3)ccc2cn1)c1cc(Cl)c2c(c1)S(=O)(=O)[C@@H](F)COC2` [Compound 474]: the “Ratio (MDA-MMTV IC50 (μM) divided by A549-MMTV IC50 (μM))” value is on record as 42.97. For the same compound, for the setting “Homo sapiens, A549, 6 h”, it took 18.6 nM to reach half-maximal inhibition (IC50).

As to `[2H]C([2H])([2H])Oc1ccc(-c2ccc3cnc(CNC(=O)c4cc(Cl)c5c(c4)S(=O)(=O)[C@@H](F)COC5)cc3n2)nc1C1CC1(F)F` (stereo partly drawn) [Compound 506], the “Ratio (MDA-MMTV IC50 (μM) divided by A549-MMTV IC50 (μM))” value worked out at 42.09. The compound further displayed an IC50 (Homo sapiens, A549, 6 h) of 10.2 nM.

As for `[2H]C([2H])([2H])[C@@]([2H])(F)c1ccc(-c2ccc3cnc(CNC(=O)c4cc(Br)c5c(c4)S(=O)(=O)[C@@H](F)COC5)cc3n2)c(OC)n1` [Compound 502], the “Ratio (MDA-MMTV IC50 (μM) divided by A549-MMTV IC50 (μM))” value was found to be 38.00. Under “Homo sapiens, A549, 6 h”, the half-maximal inhibitory concentration (IC50) came out at 9.6 nM.

In the case of `O=C(NCc1cc2nc(-c3ccc([C@@H](F)C(F)F)c(C4CC4)n3)ccc2cn1)c1cc(C(F)F)c2c(c1)S(=O)(=O)[C@@H](F)COC2` [Compound 476], the “Ratio (MDA-MMTV IC50 (μM) divided by A549-MMTV IC50 (μM))” value came to 21.45. The compound also had a 50% inhibitory concentration (IC50) (Homo sapiens, A549, 6 h) of 22.4 nM.

For the compound `[2H]C([2H])([2H])C([2H])([2H])Oc1nc([C@@H](F)CF)ccc1-c1ccc2cnc(CNC(=O)c3cc(Cl)c4c(c3)S(=O)(=O)[C@@H](F)CCO4)cc2n1` [Compound 454], the “Ratio (MDA-MMTV IC50 (μM) divided by A549-MMTV IC50 (μM))” value came out at 29.67. Also, the IC50 (Homo sapiens, A549, 6 h) stood at 14.2 nM.

Regarding `CCOc1nc([C@H](F)CF)ccc1-c1ccc2cnc(CNC(=O)c3cc(Br)c4c(c3)S(=O)(=O)[C@@H](F)COC4)cc2n1` [Compound 461], the “Ratio (MDA-MMTV IC50 (μM) divided by A549-MMTV IC50 (μM))” value is listed as 56.88. Where the note is “Homo sapiens, A549, 6 h”, the IC50 came out at 25.9 nM.

As to `COc1nc(OC(F)F)ccc1-c1ccc2cnc(CNC(=O)c3cc(F)c4c(c3)S(=O)(=O)[C@@H](F)CCO4)cc2n1` [Compound 388], the “Ratio (MDA-MMTV IC50 (μM) divided by A549-MMTV IC50 (μM))” value came out at 26.43. Under “Homo sapiens, A549, 6 h”, the IC50 is 7.3 nM.

`CCOc1nc([C@H](F)CF)ccc1-c1ccc2cnc(CNC(=O)c3cc(Cl)c4c(c3)S(=O)(=O)[C@@H](F)COC4)cc2n1` [Compound 481]: the IC50 is 10.2 nM and the “Ratio (MDA-MMTV IC50 (μM) divided by A549-MMTV IC50 (μM))” value came to 50.79.

With `O=C(NCc1cc2nc(-c3ccnc(C4CC4)n3)ccc2cn1)c1cc(F)c2c(c1)S(=O)(=O)[C@@H](F)CCO2` [Compound 344], the “Ratio (MDA-MMTV IC50 (μM) divided by A549-MMTV IC50 (μM))” value was 25.42. Moreover, the IC50 (Homo sapiens, A549, 6 h) is 18.6 nM.

Regarding `[2H]C([2H])([2H])C([2H])([2H])Oc1nc([C@@H](F)CF)ccc1-c1ccc2cnc(CNC(=O)c3cc(C(F)F)c4c(c3)S(=O)(=O)[C@@H](F)COC4)cc2n1` [Compound 479], the “Ratio (MDA-MMTV IC50 (μM) divided by A549-MMTV IC50 (μM))” value turned out to be 35.46. The compound also showed an IC50 (Homo sapiens, A549, 6 h) of 6.2 nM.

Turning to `Cc1cc(C(=O)NCc2cc3nc(-c4ccc(C(F)F)c(C5CC5)n4)ccc3cn2)cc2c1COC[C@H](F)S2(=O)=O` [Compound 397], the “Ratio (MDA-MMTV IC50 (μM) divided by A549-MMTV IC50 (μM))” value was 29.48. Moreover, the IC50 (Homo sapiens, A549, 6 h) worked out at 5.3 nM.

For `O=C(NCc1cc2nc(-c3cccc(OCC(F)F)n3)ccc2cn1)c1cc(Cl)c2c(c1)S(=O)(=O)[C@@H](F)COC2` [Compound 387], the “Ratio (MDA-MMTV IC50 (μM) divided by A549-MMTV IC50 (μM))” value came to 34.06. The same compound gave an IC50 (Homo sapiens, A549, 6 h) of 17.3 nM.

With `O=C(NCc1cc2nc(-c3ccc(OC(F)F)c(C4CC4)n3)ccc2cn1)c1cc(Cl)c2c(c1)S(=O)(=O)[C@@H](F)CCO2` [Compound 355], the “Ratio (MDA-MMTV IC50 (μM) divided by A549-MMTV IC50 (μM))” value worked out at 23.10. Also, for the setting “Homo sapiens, A549, 6 h”, half-maximal inhibition (IC50) required 13.1 nM.

`O=C(NCc1cc2nc(-c3ccc([C@H](F)C(F)F)c(C4CC4)n3)ccc2cn1)c1cc(F)c2c(c1)S(=O)(=O)[C@@H](F)COC2` [Compound 453]: the “Ratio (MDA-MMTV IC50 (μM) divided by A549-MMTV IC50 (μM))” value turned out to be 28.72. Also, where the note is “Homo sapiens, A549, 6 h”, inhibition was half-maximal at 8.8 nM (IC50).

In the case of `[2H]C([2H])([2H])C([2H])([2H])Oc1nc(C(F)F)ccc1-c1ccc2cnc(CNC(=O)c3cc(C(F)F)c4c(c3)S(=O)(=O)[C@@H](F)COC4)cc2n1` [Compound 446], the “Ratio (MDA-MMTV IC50 (μM) divided by A549-MMTV IC50 (μM))” value is recorded as 29.71. Also, inhibition (Homo sapiens, A549, 6 h) was half-maximal at 13.5 nM (IC50).

With `[2H]C([2H])([2H])C([2H])([2H])Oc1nc([C@@H](F)CF)ccc1-c1ccc2cnc(CNC(=O)c3cc(Br)c4c(c3)S(=O)(=O)[C@@H](F)COC4)cc2n1` [Compound 489], the “Ratio (MDA-MMTV IC50 (μM) divided by A549-MMTV IC50 (μM))” value came out at 35.95. Where the note is “Homo sapiens, A549, 6 h”, this compound registered an IC50 of 11.8 nM.

On to `C=Cc1cc(C(=O)NCc2cc3nc(-c4cccc(N5C[C@@H](C)O[C@@H](C)C5)n4)ccc3cn2)cc2c1OCC[C@H](F)S2(=O)=O` [Compound 407], for which the “Ratio (MDA-MMTV IC50 (μM) divided by A549-MMTV IC50 (μM))” value came out at 29.00. Moreover, under “Homo sapiens, A549, 6 h”, the IC50 was determined as 11.7 nM.

On to `[2H]C1([2H])Oc2c(Cl)cc(C(=O)NCc3cc4nc(-c5ccc(OC(F)F)c(C6CC6)n5)ccc4cn3)cc2S(=O)(=O)[C@@H](F)C1([2H])[2H]` [Compound 419], for which the “Ratio (MDA-MMTV IC50 (μM) divided by A549-MMTV IC50 (μM))” value stood at 28.69. For the same compound, under “Homo sapiens, A549, 6 h”, the IC50 is 17.4 nM.

Consider `COc1nc([C@H](F)CF)ccc1-c1ccc2cnc(CNC(=O)c3cc(Cl)c4c(c3)S(=O)(=O)[C@@H](F)COC4)cc2n1` [Compound 380], for which the “Ratio (MDA-MMTV IC50 (μM) divided by A549-MMTV IC50 (μM))” value is on record as 33.44. Further, the concentration for half-maximal inhibition (IC50) (Homo sapiens, A549, 6 h) worked out at 9.1 nM.
